Patent US10364238B2, “N-((het) arylmethyl)-heteroaryl-carboxamides compounds as plasma kallikrein inhibitors” (KALVISTA PHARMACEUTICALS LIMITED, priority 2014, dated 2019)

Experiments:
Format in all cases: biochemical
Human plasma kallikrein = Human plasma kallikrein (Homo sapiens (Human), UniProt P03952); assay: Determination of the IC50 for plasma kallikrein; settings: 25° C., fluorogenic substrate H-DPro-Phe-Arg-AFC; read-out: IC50 (human PKaI)
Description: Determination of the IC50 for Plasma Kallikrein
(§1) Human plasma kallikrein (Protogen) was incubated at 25° C. with the fluorogenic substrate H-DPro-Phe-Arg-AFC and various concentrations of the test compound. Residual enzyme activity (initial rate of reaction) was determined by measuring the change in […] at 410 nm and the IC50 value for the test compound was determined.

Human KLK1 = Human KLK1 (Homo sapiens (Human), UniProt P06870); assay: Determination of the IC50 for KLK1; settings: 25° C., fluorogenic substrate H-DVal-Leu-Arg-AFC
Sequence of Human KLK1 (P06870 25-262): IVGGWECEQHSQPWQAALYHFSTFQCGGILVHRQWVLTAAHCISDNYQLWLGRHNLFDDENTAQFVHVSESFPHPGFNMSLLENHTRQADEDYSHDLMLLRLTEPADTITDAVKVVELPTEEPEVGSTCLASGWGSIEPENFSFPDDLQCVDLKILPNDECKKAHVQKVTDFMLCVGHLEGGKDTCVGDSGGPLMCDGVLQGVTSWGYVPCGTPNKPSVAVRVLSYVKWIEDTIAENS
Description: Determination of the IC50 for KLK1
as §1, with “KLK1 (Callbiochem)” for “plasma kallikrein (Protogen)”, “H-DVal-Leu-Arg-AFC” for “H-DPro-Phe-Arg-AFC”

Human FXIa = Human FXIa (Homo sapiens (Human), UniProt P03951); assay: Determination of the % inhibition for FXIa; settings: 40 μM test compound, 25° C., substrate Z-Gly-Pro-Arg-AFC
Sequence of Human FXIa (P03951 388-625): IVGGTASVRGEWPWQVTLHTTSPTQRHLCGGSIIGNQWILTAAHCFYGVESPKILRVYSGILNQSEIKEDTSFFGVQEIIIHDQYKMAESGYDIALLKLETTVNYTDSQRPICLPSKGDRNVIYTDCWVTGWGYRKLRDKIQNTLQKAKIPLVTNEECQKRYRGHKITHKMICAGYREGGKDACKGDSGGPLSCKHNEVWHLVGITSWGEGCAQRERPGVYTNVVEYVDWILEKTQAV
Sequence of Human FXIa (P03951 19-387 partner): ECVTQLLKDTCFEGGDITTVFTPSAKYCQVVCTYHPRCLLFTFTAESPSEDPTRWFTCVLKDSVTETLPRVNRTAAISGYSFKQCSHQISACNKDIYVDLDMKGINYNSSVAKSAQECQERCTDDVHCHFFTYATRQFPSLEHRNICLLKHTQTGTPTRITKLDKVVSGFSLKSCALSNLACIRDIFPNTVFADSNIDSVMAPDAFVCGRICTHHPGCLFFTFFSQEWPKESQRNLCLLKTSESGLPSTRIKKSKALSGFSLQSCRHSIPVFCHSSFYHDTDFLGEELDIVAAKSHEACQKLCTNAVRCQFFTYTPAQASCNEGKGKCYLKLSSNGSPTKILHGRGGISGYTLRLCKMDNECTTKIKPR
Description: Determination of the % Inhibition for FXIa
Human FXIa (Enzyme Research Laboratories) was incubated at 25° C. with the fluorogenic substrate Z-Gly-Pro-Arg-AFC and 40 μM of the test compound. Residual enzyme activity (initial rate of reaction) was determined by measuring the change in […].

Sequence of Human plasma kallikrein (P03952 391-638): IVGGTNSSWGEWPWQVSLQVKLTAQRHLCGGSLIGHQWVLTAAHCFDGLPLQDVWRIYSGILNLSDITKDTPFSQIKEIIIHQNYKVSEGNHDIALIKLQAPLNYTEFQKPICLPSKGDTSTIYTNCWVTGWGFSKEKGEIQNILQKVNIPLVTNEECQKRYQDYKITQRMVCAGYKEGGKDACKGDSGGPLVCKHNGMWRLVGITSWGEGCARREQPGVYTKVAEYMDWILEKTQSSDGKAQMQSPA
Sequence of Human plasma kallikrein (P03952 20-390 partner): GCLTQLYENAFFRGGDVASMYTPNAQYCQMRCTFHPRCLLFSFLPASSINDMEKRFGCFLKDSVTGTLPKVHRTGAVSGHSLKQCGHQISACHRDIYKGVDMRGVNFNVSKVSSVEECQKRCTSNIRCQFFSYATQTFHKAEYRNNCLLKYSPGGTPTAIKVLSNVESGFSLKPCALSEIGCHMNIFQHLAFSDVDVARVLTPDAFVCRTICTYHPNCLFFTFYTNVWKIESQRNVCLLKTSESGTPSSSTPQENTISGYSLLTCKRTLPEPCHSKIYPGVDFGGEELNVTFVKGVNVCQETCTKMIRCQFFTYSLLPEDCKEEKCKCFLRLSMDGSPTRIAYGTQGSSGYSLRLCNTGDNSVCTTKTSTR

Row | SMILES | IC50 (Human plasma kallikrein) | IC50 (Human KLK1) | inhibition at 40 µM (Human FXIa)
1 | COCc1nn(Cc2ccc(Cn3ccccc3=O)cc2)cc1C(=O)NCc1cccc(OC)c1C(F)(F)F [Example 78, N-{[3-methoxy-2-(trifluoromethyl)phenyl]methyl}-3-(methoxymethyl)-1-({4-[(2-oxopyridin-1-yl)methyl]phenyl}methyl)pyrazole-4-carboxamide] | 612 nM | > 10000 nM | 0%
2 | COCc1nn(Cc2ccc(Cn3ccccc3=O)cc2)cc1C(=O)NCc1ccccc1C(=O)O [Example 87, 2-({[3-(methoxymethyl)-1-({4-[(2-oxopyridin-1-yl)methyl]phenyl}methyl)pyrazol-4-yl]formamido}methyl)benzoic acid] | > 10000 nM | > 10000 nM | 2%
3 | COCc1nn(Cc2ccc(Cn3ccccc3=O)cc2)cc1C(=O)NCc1cccc(OC(F)F)c1F [Example 90, N-{[3-(difluoromethoxy)-2-fluorophenyl]methyl}-3-(methoxymethyl)-1-({4-[(2-oxopyridin-1-yl)methyl]phenyl}methyl)pyrazole-4-carboxamide] | 154 nM | > 40000 nM | 2%
4 | COCc1nn(Cc2ccc(Cn3ccccc3=O)cc2)cc1C(=O)NCc1cccc(OC(F)F)c1 [Example 91, N-{[3-(difluoromethoxy)phenyl]methyl}-3-(methoxymethyl)-1-({4-[(2-oxopyridin-1-yl)methyl]phenyl}methyl)pyrazole-4-carboxamide] | 523 nM | > 10000 nM | 0%
5 | COCc1nn(Cc2ccc(Cn3ccccc3=O)cc2)cc1C(=O)NCc1cc(F)ccc1F [Example 94, N-[(2,5-difluorophenyl)methyl]-3-(methoxymethyl)-1-({4-[(2-oxopyridin-1-yl)methyl]phenyl}methyl)pyrazole-4-carboxamide] | 780 nM | > 10000 nM | 0%
6 | COCc1nn(Cc2ccc(Cn3ccccc3=O)cc2)cc1C(=O)NCc1cc(F)cc(OC)c1 [Example 95, N-[(3-fluoro-5-methoxyphenyl)methyl]-3-(methoxymethyl)-1-({4-[(2-oxopyridin-1-yl)methyl]phenyl}methyl)pyrazole-4-carboxamide] | 308 nM | > 40000 nM | 1%
7 | COCc1nn(Cc2ccc(Cn3ccncc3=O)cc2)cc1C(=O)NCc1cccc(OC)c1F [Example 104, N-[(2-fluoro-3-methoxyphenyl)methyl]-3-(methoxymethyl)-1-({4-[(2-oxopyrazin-1-yl)methyl]phenyl}methyl)pyrazole-4-carboxamide] | 691 nM | > 10000 nM | 0%
8 | CCOc1ccn(Cc2ccc(Cn3cc(C(=O)NCc4c(F)ccc(OC)c4F)c(COC)n3)cc2)c(=O)c1 [Example 109, N-[(2,6-difluoro-3-methoxyphenyl)methyl]-1-({4-[(4-ethoxy-2-oxopyridin-1-yl)methyl]phenyl}methyl)-3-(methoxymethyl)pyrazole-4-carboxamide] | 2980 nM | > 10000 nM | 2%
9 | COc1cccc(CNC(=O)c2cn(Cc3ccc(Cn4ccccc4=O)cc3)c(C(F)(F)F)n2)c1F [Example 124, N-[(2-fluoro-3-methoxyphenyl)methyl]-1-({4-[(2-oxopyrldin-1-yl)methyl]phenyl}methyl)-2-(trifluoromethyl)imidazole-4-carboxamide] | 191 nM | > 10000 nM | 0%
10 | COc1cccc(CNC(=O)c2cn(Cc3ccc(N4CCCC4)nc3)nc2C(F)(F)F)c1F [Example 126, N-[(2-fluoro-3-methoxyphenyl)methyl]-1-{[6-(pyrrolidin-1-yl)pyridin-3-yl]methyl}-3-(trifluoromethyl)pyrazole-4-carboxamide] | 742 nM | > 10000 nM | 10%
11 | Nc1nn(Cc2ccc(Cn3ccccc3=O)cc2)cc1C(=O)NCc1cccc(O)c1F [Example 130, 3-amino-N-[(2-fluoro-3-hydroxyphenyl)methyl]-1-({4-[(2-oxopyridin-1-yl)methyl]phenyl}methyl)pyrazole-4-carboxamide] | 174 nM | > 40000 nM | 0%
12 | COCc1nn(Cc2ccc(Cn3ccccc3=O)cc2)cc1C(=O)NCc1ccccc1C(=O)OC [Example 131, methyl 2-({[3-(methoxymethyl)-1-({4-[(2-oxopyridin-1-yl)methyl]phenyl}methyl)pyrazol-4-yl]formamido}methyl)benzoate] | 1510 nM | > 10000 nM | 0%
13 | CCc1cccc(CNC(=O)c2cn(Cc3ccc(Cn4ccccc4=O)cc3)nc2COC)c1F [Example 132, N-[(3-ethyl-2-fluorophenyl)methyl]-3-(methoxymethyl)-1-({4-[(2-oxopyridin-1-yl)methyl]phenyl}methyl)pyrazole-4-carboxamide] | 135 nM | > 40000 nM | 0%

Results, then the molecule that gave them:

Row | IC50 (Human plasma kallikrein) | IC50 (Human KLK1) | inhibition at 40 µM (Human FXIa) | SMILES
14 | 28.3 nM | > 40000 nM | 5% | COCc1nn(Cc2ccc(Cn3ccccc3=O)cc2)cc1C(=O)NCc1cc(Cl)ccc1C#N [Example 76, N-[(5-chloro-2-cyanophenyl)methyl]-3-(methoxymethyl)-1-({4-[(2-oxopyridin-1-yl)methyl]phenyl}methyl)pyrazole-4-carboxamide]
15 | 14.7 nM | > 40000 nM | 2% | COCc1nn(Cc2ccc(Cn3ccccc3=O)cc2)cc1C(=O)NCc1cc(OC)ccc1C(F)(F)F [Example 79, N-{[5-methoxy-2-(trifluoromethyl)phenyl]methyl}-3-(methoxymethyl)-1-({4-[(2-oxopyridin-1-yl)methyl]phenyl}methyl)pyrazole-4-carboxamide]
16 | 2.3 nM | > 40000 nM | 1% | COCc1nn(Cc2ccc(Cn3ccccc3=O)cc2)cc1C(=O)NCc1cc(OC)ccc1C(F)F [Example 81, N-{[2-(difluoromethyl)-5-methoxyphenyl]methyl}-3-(methoxymethyl)-1-({4-[(2-oxopyridin-1-yl)methyl]phenyl}methyl)pyrazole-4-carboxamide]
17 | 79.2 nM | > 40000 nM | 46% | COCc1nn(Cc2ccc(Cn3ccccc3=O)cc2)cc1C(=O)NCc1c(F)cccc1C(N)=O [Example 85, N-[(2-carbamoyl-6-fluorophenyl)methyl]-3-(methoxymethyl)-1-({4-[(2-oxopyridin-1-yl)methyl]phenyl}methyl)pyrazole-4-carboxamide]
18 | 16 nM | > 10000 nM | 4% | COCc1nn(Cc2ccc(Cn3ccccc3=O)cc2)cc1C(=O)NCc1c(F)cccc1OC(F)F [Example 92, N-{[2-(difluoromethoxy)-6-fluorophenyl]methyl}-3-(methoxymethyl)-1-({4-[(2-oxopyridin-1-yl)methyl]phenyl}methyl)pyrazole-4-carboxamide]
19 | 75 nM | > 40000 nM | 0% | COCc1nn(Cc2ccc(Cn3ccccc3=O)cc2)cc1C(=O)NCc1cc(F)cc(OC)c1F [Example 96, N-[(2,5-difluoro-3-methoxyphenyl)methyl]-3-(methoxymethyl)-1-({4-[(2-oxopyridin-1-yl)methyl]phenyl}methyl)pyrazole-4-carboxamide]
20 | 153 nM | > 10000 nM | 0% | COCc1nn(Cc2ccc(Cn3ccccc3=O)cc2)cc1C(=O)NCc1c(C)cccc1F [Example 97, N-[(2-fluoro-6-methylphenyl)methyl]-3-(methoxymethyl)-1-({4-[(2-oxopyridin-1-yl)methyl]phenyl}methyl)pyrazole-4-carboxamide]
21 | 140 nM | > 10000 nM | 2% | COCc1nn(Cc2ccc(Cn3ccc(C)cc3=O)cc2)cc1C(=O)NCc1c(F)ccc(OC)c1F [Example 106, N-[(2,6-difluoro-3-methoxyphenyl)methyl]-3-(methoxymethyl)-1-({4-[(4-methyl-2-oxopyridin-1-yl)methyl]phenyl}methyl)pyrazole-4-carboxamide]
22 | 43.9 nM | > 10000 nM | 0% | COc1cccc(CNC(=O)c2cn(Cc3ccc(Cn4ccccc4=O)cc3)c(C)n2)c1F [Example 121, N-[(2-fluoro-3-methoxyphenyl)methyl]-2-methyl-1-({4-[(2-oxopyridin-1-yl)methyl]phenyl}methyl)imidazole-4-carboxamide]
23 | 90.2 nM | > 10000 nM | 1% | COCc1nn(Cc2ccc(Cn3ccccc3=O)cc2)cc1C(=O)NCc1cccc(OC)c1 [Example 133, 3-(methoxymethyl)-N-[(3-methoxyphenyl)methyl]-1-({4-[(2-oxopyridin-1-yl)methyl]phenyl}methyl)pyrazole-4-carboxamide]
24 | 64.7 nM | > 40000 nM | 33% | CN1CC(CNC(=O)c2cn(Cc3ccc(Cn4ccccc4=O)cc3)nc2N)Oc2cc(Cl)ccc21 (stereo not drawn) [Example 139, 3-amino-N-[(7-chloro-4-methyl-2,3-dihydro-1,4-benzoxazin-2-yl)methyl]-1-({4-[(2-oxopyridin-1-yl)methyl]phenyl}methyl)pyrazole-4-carboxamide]
